Earlier results in patent US8053463B2, “PPAR active compounds” (Plexxikon Inc., priority 2007, dated 2011).

Assays:
PPARδ = target: T1, PPARδ (Homo sapiens, UniProt Q03181)
T1 sequence (Q03181 1-441): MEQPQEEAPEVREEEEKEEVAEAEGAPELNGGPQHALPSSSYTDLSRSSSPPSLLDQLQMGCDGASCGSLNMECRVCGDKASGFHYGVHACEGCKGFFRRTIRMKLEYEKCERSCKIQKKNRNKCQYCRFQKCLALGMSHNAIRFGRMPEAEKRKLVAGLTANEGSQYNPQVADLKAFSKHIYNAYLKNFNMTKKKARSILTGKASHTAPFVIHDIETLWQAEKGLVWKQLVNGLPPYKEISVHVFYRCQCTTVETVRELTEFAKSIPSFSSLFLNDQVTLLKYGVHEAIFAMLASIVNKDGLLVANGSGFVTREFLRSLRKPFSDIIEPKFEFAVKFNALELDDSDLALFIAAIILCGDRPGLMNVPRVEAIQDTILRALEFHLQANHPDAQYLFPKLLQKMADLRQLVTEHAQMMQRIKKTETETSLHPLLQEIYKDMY

murine PPARα = target: T2, murine PPARα (Mus musculus, UniProt P23204)
T2 sequence (P23204 1-468): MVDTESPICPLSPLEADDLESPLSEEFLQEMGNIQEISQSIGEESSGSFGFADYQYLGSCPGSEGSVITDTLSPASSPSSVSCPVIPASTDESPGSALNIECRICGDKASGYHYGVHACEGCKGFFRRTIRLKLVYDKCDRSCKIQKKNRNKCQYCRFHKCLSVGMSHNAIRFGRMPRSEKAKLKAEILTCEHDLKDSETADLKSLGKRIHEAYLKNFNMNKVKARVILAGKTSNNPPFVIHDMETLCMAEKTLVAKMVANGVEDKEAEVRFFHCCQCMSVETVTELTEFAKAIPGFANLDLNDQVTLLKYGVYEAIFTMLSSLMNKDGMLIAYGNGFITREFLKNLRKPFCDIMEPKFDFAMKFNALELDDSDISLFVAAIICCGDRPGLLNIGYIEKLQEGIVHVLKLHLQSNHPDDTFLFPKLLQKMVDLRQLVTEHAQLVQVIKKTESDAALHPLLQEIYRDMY

agonist selectivity for PPARδ over PPARγ (PPARδ): approximately 30 fold
activity on murine PPARα (murine PPARα): inactive
Compound: CCCc1c(OCCCOc2ccc(OCC(=O)O)cc2)ccc(C(C)=O)c1O [Compound L-165041]
